Here are results for one molecule from US20060275362A1, “Rapidly-dissolving pharmaceutical composition for inhibiting ovulation” (priority 2005, published 2006).

This data set is described as follows: Effect of Tween 80 on the solubility of drospirenone in water. It counts as physicochemical. The conditions noted are these: Solubility enhancer Tween 80 (Polysorbate 80), drug:enhancer 1:9 parts by weight, agitated approximately 22 hours, versus water alone.

For `C[C@]12CCC(=O)C=C1[C@@H]1C[C@@H]1[C@H]1[C@@H]3[C@@H]4C[C@@H]4[C@@]4(CCC(=O)O4)[C@@]3(C)CC[C@@H]12` [Drospirenone, (2′S, 6R, 7R, 8R, 9S, 10R, 13S, 14S, 15S, 16S)-1,3′, 4′, 6,7,8,9, 10, 11, 12, 13, 14, 15, 16, 20, 21-hexadecahydro-10, 13-dimethylspiro[17H-dicyclopropa[6,7:15,16]cyclopenta[a]phenanthrene-17,2′(5′H)-furan]-3,5′(2H)-dione], the “% Increase in the Solubility of Drospirenone as Determined by HPLC” value is 42%.
